In ChEMBL document CHEMBL1944517, “New inhibitors of dihydroorotate dehydrogenase (DHODH) based on the 4-hydroxy-1,2,5-oxadiazol-3-yl (hydroxyfurazanyl) scaffold” (Eur J Med Chem, 2012) one finds IC50 data, which are given here for 12 compounds.

For the experiment, the target named is Dihydroorotate dehydrogenase (quinone), mitochondrial (Rattus norvegicus, UniProt Q63707). Briefly: Inhibition of dihydroorotate dehydrogenase in Wistar rat liver mitochondrial/microsomal membranes measured for 5 mins by 2,6-dichlorophenolindophenol reduction-based spectrophotometry. Type of experiment: cell membranes, Membrane.
Dihydroorotate dehydrogenase (quinone), mitochondrial, sequence (Q63707 whole entry): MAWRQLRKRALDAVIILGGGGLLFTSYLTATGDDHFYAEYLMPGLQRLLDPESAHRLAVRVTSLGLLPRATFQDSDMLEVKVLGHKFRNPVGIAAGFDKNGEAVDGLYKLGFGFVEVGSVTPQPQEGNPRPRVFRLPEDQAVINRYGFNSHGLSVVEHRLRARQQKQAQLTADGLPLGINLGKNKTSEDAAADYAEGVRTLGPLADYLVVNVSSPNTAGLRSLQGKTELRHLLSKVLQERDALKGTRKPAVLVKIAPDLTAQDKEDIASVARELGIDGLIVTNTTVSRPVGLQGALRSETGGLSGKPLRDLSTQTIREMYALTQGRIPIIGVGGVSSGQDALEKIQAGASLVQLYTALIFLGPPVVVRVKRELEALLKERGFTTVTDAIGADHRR
On to `O=C(Nc1ccc(C(F)(F)F)cc1)c1nonc1O`, for which the concentration for half-maximal inhibition (IC50) amounted to 4300 nM.
For `O=C(Nc1ccc(-c2ccccc2)cc1)c1nonc1O` the value was 11000 nM; for `O=C(Nc1ccccc1-c1ccccc1)c1no[nH]c1=O`, 45000 nM; for `O=C(Nc1ccc(-c2ccc(C(F)(F)F)cc2)cc1)c1nonc1O`, 49000 nM.
For `O=C(Nc1ccc(-c2cccc(C(F)(F)F)c2)cc1)c1nonc1O` the value was 25000 nM; for `O=C(Nc1c(F)cc(-c2ccccc2)cc1F)c1no[nH]c1=O`, 880 nM.
`O=C(Nc1c(F)c(F)c(-c2ccccc2)c(F)c1F)c1no[nH]c1=O` gave an IC50 of 66 nM.
For `O=C(Nc1c(F)cc(-c2cccc(C(F)(F)F)c2)cc1F)c1nonc1O` the value was 870 nM; for `O=C(Nc1c(F)cc(-c2ccc(C(F)(F)F)cc2)cc1F)c1nonc1O`, 2300 nM; for `O=C(Nc1c(F)c(F)c(-c2ccc(C(F)(F)F)cc2)c(F)c1F)c1no[nH]c1=O`, 490 nM.
As to `O=C(Nc1c(F)c(F)c(-c2cccc(C(F)(F)F)c2)c(F)c1F)c1nonc1O`, inhibition was half-maximal at 120 nM (IC50).
Then `O=C(Nc1c(F)c(F)c(-c2cccc(OC(F)(F)F)c2)c(F)c1F)c1no[nH]c1=O`, with 50 nM.

For orientation: IC50 means the concentration at which inhibition is half-maximal. Low readings indicate higher potency, high ones lower potency.
